# Assay results taken from article PMC11264232, “Are the metal identity and stoichiometry of metal complexes important for colchicine site binding and inhibition of tubulin polymerization?” (Dalton Transactions (Cambridge, England : 2003), 2024).
# How the values were obtained:
# [1] = system: CAKI-1; assay: NCI-60 five-dose screen; type: cell-based, human; conditions: Renal cancer
# Procedure: (§3) The NCI-60 SRB assay was performed as described previously.[76] GI50 values (the concentration of the metal complex causing 50% growth inhibition), TGI value (the concentration of the complex causing 0% cell growth), and LC50 (the concentration of the complex causing 50% cell death) were interpolated from dose–response curves that were plots of percentage cell growth versus concentration of test compounds.
# [2] = system: HCC-2998; assay: NCI-60 five-dose screen; type: cell-based, human; conditions: Colon cancer
# Procedure: as §3
# [3] = system: A498; assay: NCI-60 five-dose screen; type: cell-based, human; conditions: Renal cancer
# Procedure: as §3
# [4] = system: SR; assay: NCI-60 five-dose screen; type: cell-based, human; conditions: Leukemia
# Procedure: as §3
# [5] = system: PC-3; assay: NCI-60 five-dose screen; type: cell-based, human; conditions: Prostate cancer
# Text: (§4) GI50 values (the concentration of the metal complex causing 50% growth inhibition), TGI value (the concentration of the complex causing 0% cell growth), and LC50 (the concentration of the complex causing 50% cell death) were interpolated from dose–response curves that were plots of percentage cell growth versus concentration of test compounds.
# [6] = system: SF-295; assay: NCI-60 five-dose screen; type: cell-based, human; conditions: CNS cancer
# Text: as §4
# [7] = system: OVCAR-4; assay: NCI-60 five-dose screen; type: cell-based, human; conditions: Ovarian cancer
# Procedure: as §3
# [8] = system: HOP-62; assay: NCI-60 five-dose screen; type: cell-based, human; conditions: Non-Small Cell Lung Cancer
# Procedure: as §3
# [9] = system: NCI-H226; assay: NCI-60 five-dose screen; type: cell-based, human; conditions: Non-Small Cell Lung Cancer
# Procedure: as §3
# [10] = system: SW-620; assay: NCI-60 five-dose screen; type: cell-based, human; conditions: Colon cancer
# Text: as §4
# [11] = system: NCI-H460; assay: NCI-60 five-dose screen; type: cell-based, human; conditions: Non-Small Cell Lung Cancer
# Procedure: as §3
# [12] = system: SF-268; assay: NCI-60 five-dose screen; type: cell-based, human; conditions: CNS cancer
# Text: as §4
# [13] = system: KM12; assay: NCI-60 five-dose screen; type: cell-based, human; conditions: Colon cancer
# Procedure: as §3
# [14] = system: RXF 393; assay: NCI-60 five-dose screen; type: cell-based, human; conditions: Renal cancer
# Procedure: as §3
# [15] = system: MALME-3M; conditions: Melanoma
# Text: (§1) The proligands HL^1–HL^3 and their corresponding metal complexes 1–8 prepared in this study were subjected to evaluation of their anticancer potential, including selectivity towards specific types of cancer: leukemia, non-small cell lung (NSCLC), colon, central nervous system (CNS), melanoma, ovarian, renal, prostate and breast cancers, by the National Cancer Institute's Developmental Therapeutics Program. This evaluation involved the utilization of the NCI 60 human tumor cell line panel.[57] […] The GI50 data in μM are collected in Table 5.
# (§2) The NCI-60 SRB assay was performed as described previously.[76]
# [16] = system: MDA-MB-435; conditions: Melanoma
# Text: as §1, §2
# [17] = system: UACC-62; conditions: Melanoma
# Text: as §1, §2
# [18] = system: SK-MEL-28; conditions: Melanoma
# Text: as §1, §2
# [19] = system: M14; conditions: Melanoma
# Text: as §1, §2
# [20] = system: LOX IMVI; conditions: Melanoma
# Text: as §1, §2
# [21] = system: UACC-257; conditions: Melanoma
# Text: as §1, §2
# [22] = system: SK-MEL-5; conditions: Melanoma
# Text: as §1, §2
# [23] = system: SK-MEL-2; conditions: Melanoma
# Text: as §1, §2
# [24] = system: NCI 60 human tumor cell line panel; assay: NCI-60 five-dose screen, average across panel; type: cell-based; conditions: five-dose 0.01–100 μM
# Procedure: as §3
# [25] = system: TK-10; assay: NCI-60 five-dose screen; type: cell-based, human; conditions: Renal cancer
# Text: as §4
# [26] = system: HT29; assay: NCI-60 five-dose screen; type: cell-based, human; conditions: Colon cancer
# Procedure: as §3
# [27] = system: NCI/ADR-RES; assay: NCI-60 five-dose screen; type: cell-based, human; conditions: Ovarian cancer
# Procedure: as §3
# [28] = system: A549 cells; assay: BrdU incorporation assay; conditions: 10 μM, 24 h
# Procedure: To test directly the antiproliferative activity of the proligands and of their Co(III) and Fe(III) complexes on A549 cancer cells, non-toxic concentrations of the compounds were applied to the cells, then the 5-bromo-2′-deoxy-uridine (BrdU) incorporation assay was performed (Fig. 10).
# The effect of proligands HL^1–HL^3 and of metal complexes 1, 2 and 4, 5 on the proliferation of A549 cells was investigated by the BrdU assay (5-bromo-2′-deoxyuridine Labeling and Detection Kit I, Roche, Cat. No. 11 296 736 001). For this, 3 × 10^4 cells were seeded onto glass coverslips that were placed on 24-well plates, and the cells were left to grow overnight. Next day, when the cells reached about 50% confluence, the samples were treated with 10 μM of each compound or with an equivalent volume of DMSO for 24 h. At this point, BrdU labeling solution was added in a 1 : 1000 dilution, and the incubation continued for 30 min. Then the cells were fixed using 70% ethanol in 50 mM glycine (pH 2.0), and immunofluorescence of adherent cells was measured following the manufacturer's instructions. BrdU incorporation was visualized using an Olympus FV10i confocal microscope.
# [29] = system: microtubule system in A549 cancer cells; assay: α-Tubulin immunostaining; type: cell-based, human; conditions: 80 μM, 24 h
# Procedure: Since we found remarkable antiproliferative activity exerted by some of the tested compounds by the BrdU assay, and it was also shown that some of the compounds might interfere with tubulin polymerization in cell-free tests, we examined whether the metal complexes or the proligands influence the structure of the microtubule system in A549 cancer cells. For this purpose, the cells were treated with either DMSO, HL^1–HL^3, or with complexes 1, 2, 4 and 5, or were left untreated, followed by α-tubulin immunostaining (Fig. 11). In the untreated samples normal cell morphology and filamentous microtubule structure was observed.
# The structure of microtubules was visualized by α-tubulin immunostaining on A549 cells. For this, 5 × 10^4 cells per well were seeded onto coverslips in 24-well plates. […] Then samples were fixed with 4% formaldehyde (Molar Chemicals, Halásztelek, Hungary), permeabilized with 0.3% Triton-X-100 (Calbiochem, Merck Millipore, Darmstadt, Germany) and were blocked using 5% BSA (Sigma-Aldrich, St Louis, Missouri, USA) diluted in PBS. Then the cells were incubated with anti-α-tubulin antibody (Thermo Fisher Scientific, monoclonal mouse antibody, DM1A, Waltham, Massachusetts, USA) in a 1 : 300 dilution in 1% BSA followed by Alexa 488 fluorophore-conjugated goat anti-mouse secondary antibody (Abcam, Cambridge, UK) in a 1 : 600 dilution in 1% BSA. […]
# [30] = system: OVCAR-8; assay: NCI-60 five-dose screen; type: cell-based, human; conditions: Ovarian cancer
# Procedure: as §3
# [31] = system: EKVX; assay: NCI-60 five-dose screen; type: cell-based, human; conditions: Non-Small Cell Lung Cancer
# Procedure: as §3
# [32] = system: OVCAR-3; assay: NCI-60 five-dose screen; type: cell-based, human; conditions: Ovarian cancer
# Procedure: as §3
# [33] = system: MDA-MB-468; assay: NCI-60 five-dose screen; type: cell-based, human; conditions: Breast cancer
# Procedure: as §3
# [34] = system: NCI-H23; assay: NCI-60 five-dose screen; type: cell-based, human; conditions: Non-Small Cell Lung Cancer
# Procedure: as §3
# [35] = system: MRC-5 human lung fibroblast cells; assay: MTT viability assay, 24 h; conditions: read-out: IC50 values MRC-5; MRC-5 fibroblasts, 24 h, MTT assay
# Procedure: We wanted to compare the cytotoxicity of proligands HL^1–HL^3 and of their Co(III) and Fe(III) complexes 1, 2 and 4, 5 on cell lines originating from the same tissue, so human lung carcinoma A549 cells and lung fibroblast MRC-5 cells were subjected to 24 h treatments.
# The biological effects of selected metal complexes (1, 2, 4 and 5) and of their proligands (HL^1, HL^2 and HL^3) were tested more extensively on A549 human lung adenocarcinoma cells and on MRC-5 human lung fibroblast cells. Both cell lines were obtained from ATCC and maintained in DMEM cell culture media containing 1.0 g L^−1 glucose (Biosera, Nuaille, France) complemented with 10% fetal bovine serum (FBS), 2 mM L-glutamine, 0.01% streptomycin and 0.005% penicillin and were cultured under standard conditions in a 37 °C incubator at 5% CO2 and 95% humidity. The viability of A549 and of MRC-5 fibroblast cells upon exposure to the selected metal–ligand complexes and ligands were evaluated by the MTT assay. For this, 10 000 cells per well were seeded into 96-well plates and left to grow. On the next day the cells were exposed to 0, 5, 10, 20, 40 or 80 μM of each compound or to an equivalent volume of DMSO for 24 h. After the treatments, cells were washed with PBS and then were incubated with 0.5 mg mL^−1 MTT reagent (Sigma-Aldrich, St Louis, Missouri, USA) for 1 h at 37 °C. Finally, 100 μL of DMSO (Molar Chemicals, Halásztelek, Hungary) was added to each well, and the absorbance of samples was measured at 570 nm using a Synergy HTX plate reader (BioTek, Winooski, Vermont, USA). The viability measurements were repeated three times using 3 independent biological replicates.
# [36] = system: IGROV1; assay: NCI-60 five-dose screen; type: cell-based, human; conditions: Ovarian cancer
# Procedure: as §3
# [37] = system: COLO 205; assay: NCI-60 five-dose screen; type: cell-based, human; conditions: Colon cancer
# Procedure: as §3
# [38] = Solution stability by UV–vis spectrophotometry; type: physicochemical
smiles,measurement,setting,value
"CC(=NN=C([S-])Nc1cc(C)c(O)c(C)c1)c1cccc(CN2CCOCC2)n1.CC(=NN=C([S-])Nc1cc(C)c(O)c(C)c1)c1cccc(CN2CCOCC2)n1.O=[N+]([O-])[O-].[Fe+3] [Complex 4, [Fe^III(L^2)2]NO3]",GI50,[1],3.74 µM
same,GI50,[2],2.73 µM
same,GI50,[3],19.8 µM
same,GI50,[4],2.43 µM
same,GI50,[5],2.43 µM
same,GI50,[6],1.94 µM
same,GI50,[7],3.25 µM
same,GI50,[8],2.97 µM
same,GI50,[9],2.54 µM
same,GI50,[10],2.3 µM
same,GI50,[11],1.98 µM
same,GI50,[12],2.36 µM
same,GI50,[13],2.34 µM
same,GI50,[14],1.95 µM
same,GI50,[15],1.93 µM
same,GI50,[16],2.31 µM
same,GI50,[17],1.86 µM
same,GI50,[18],2.38 µM
same,GI50,[19],2.37 µM
same,GI50,[20],2.34 µM
same,GI50,[21],4.34 µM
same,GI50,[22],1.1 µM
same,GI50,[23],1.67 µM
same,average TGI across all cell lines in the panel,[24],18.4 µM
same,GI50,[24]; read-out: average GI50 across all cell lines in the panel,2.92 µM
same,LC50,[24]; read-out: average LC50 across all cell lines in the panel,51.2 µM
same,GI50,[25],4.13 µM
same,GI50,[26],7.12 µM
same,GI50,[27],2.98 µM
same,A549 cell proliferation (BrdU incorporation),[28],significantly less BrdU incorporation
same,effect on microtubule structure and cell morphology,[29],even greater disruption
same,GI50,[30],2.5 µM
same,GI50,[31],2.25 µM
same,GI50,[32],1.99 µM
same,GI50,[33],1.56 µM
same,GI50,[34],2.23 µM
same,IC50,[35],> 80 µM
same,GI50,[36],3.27 µM
same,GI50,[37],1.53 µM
same,stability of Fe(III) complexes,[38]; DMSO and water at pH 7.4,slow partial dissociation
same,stability of Fe(III) complexes,[38]; pH 2,complete dissociation
same,stability of Fe(III) complexes,"[38]; pH 11.7, anoxic conditions",the changes were minimal
